# Source: patent publication US11998539B2, “Substituted aminoquinolones as DGKalpha inhibitors for immune activation” (Bayer Aktiengesellschaft, priority 2019, dated 2024)
# Target: DGKα (Homo sapiens (Human), UniProt P23743)
# Experiment: Human DGKα kinase activity inhibition assay (ADP-Glo)
# Assay type: biochemical
# Settings: recombinant full-length human DGKα, 55 μM ATP, 7 μM 1,2-dioleoyl-sn-glycerol, read-out: IC50 values of examples in in vitro human DGKa kinase activity inhibition assays
# Summary of the method: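 Recombinant full-length human DGKα (C-terminal FLAG, from insect cells) phosphorylated 1,2-dioleoyl-sn-glycerol presented in octyl-glucopyranoside micelles. ADP formed was quantified by ADP-Glo luminescence. Compounds were added from 100-fold DMSO stocks.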
# Chain of DGKα (P23743 other isoform, or with tags, fused parts or gaps): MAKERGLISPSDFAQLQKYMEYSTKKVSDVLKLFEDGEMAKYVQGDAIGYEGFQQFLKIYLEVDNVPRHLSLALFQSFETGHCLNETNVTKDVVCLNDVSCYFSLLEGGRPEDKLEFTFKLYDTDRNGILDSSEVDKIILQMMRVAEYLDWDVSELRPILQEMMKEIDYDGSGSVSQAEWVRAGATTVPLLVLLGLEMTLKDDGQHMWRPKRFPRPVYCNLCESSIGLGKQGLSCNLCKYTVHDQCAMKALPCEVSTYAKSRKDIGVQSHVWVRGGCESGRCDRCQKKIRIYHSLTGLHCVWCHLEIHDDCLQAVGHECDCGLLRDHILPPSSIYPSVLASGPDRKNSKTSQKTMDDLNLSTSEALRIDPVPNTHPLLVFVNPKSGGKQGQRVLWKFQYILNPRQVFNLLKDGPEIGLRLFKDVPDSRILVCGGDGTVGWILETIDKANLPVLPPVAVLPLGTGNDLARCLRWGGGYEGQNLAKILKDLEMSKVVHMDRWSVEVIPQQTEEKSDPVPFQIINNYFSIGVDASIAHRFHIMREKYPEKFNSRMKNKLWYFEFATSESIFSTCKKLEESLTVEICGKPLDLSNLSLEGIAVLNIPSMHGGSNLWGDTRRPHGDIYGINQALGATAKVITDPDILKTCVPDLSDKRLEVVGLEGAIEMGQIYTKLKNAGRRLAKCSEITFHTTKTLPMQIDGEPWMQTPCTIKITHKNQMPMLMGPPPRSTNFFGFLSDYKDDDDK
row,SMILES,IC50 [nM]
1,"Cc1ccc2oc(C3(C)CCN(c4c(C#N)c(=O)n(C)c5cc(O)c(Br)cc45)CC3)nc2c1 [Example 423, 6-bromo-7-hydroxy-1-methyl-4-[4-methyl-4-(5-methyl-1,3-benzoxazol-2-yl)piperidin-1-yl]-2-oxo-1,2-dihydroquinoline-3-carbonitrile]",1
2,"Cn1c(=O)c(C(N)=O)c(N2CCC(c3nc(-c4cccnc4)no3)CC2)c2ccccc21 [Example 475, 1-methyl-2-oxo-4-{4-[3-(pyridin-3-yl)-1,2,4-oxadiazol-5-yl]piperidin-1-yl}-1,2-dihydroquinoline-3-carboxamide]",224
3,"COc1ccc(C2CCN(c3c(C#N)c(=O)n(C)c4cc(Br)ccc34)CC2)cc1 [Example 89, 7-bromo-4-[4-(4-methoxyphenyl)piperidin-1-yl]-1-methyl-2-oxo-1,2-dihydroquinoline-3-carbonitrile]",2.1
4,"COCCNc1cc2c(cc1C)c(N1CCC(c3nc4cc(C)ccc4o3)CC1)c(C#N)c(=O)n2C [Example 547, 7-[(2-methoxyethyl)amino]-1,6-dimethyl-4-[4-(5-methyl-1,3-benzoxazol-2-yl)piperidin-1-yl]-2-oxo-1,2-dihydroquinoline-3-carbonitrile]",0.6
5,"Cn1c(=O)c(C(N)=O)c(N2CCC(C)(c3nnc(-c4cccc(Cl)c4)o3)CC2)c2ccccc21 [Example 465, 4-{4-[5-(3-chlorophenyl)-1,3,4-oxadiazol-2-yl]-4-methylpiperidin-1-yl}-1-methyl-2-oxo-1,2-dihydroquinoline-3-carboxamide]",175
6,"Cn1c(=O)c(C(N)=O)c(N2CCC(C)(c3nc4ccccc4o3)CC2)c2cccc(Cl)c21 [Example 310, 4-[4-(1,3-benzoxazol-2-yl)-4-methylpiperidin-1-yl]-8-chloro-1-methyl-2-oxo-1,2-dihydroquinoline-3-carboxamide]",34
7,"Cc1ccc2oc(C3(C)CCN(c4c(C#N)c(=O)n(C)c5c(Cl)cccc45)CC3)nc2c1 [Example 231, 8-chloro-1-methyl-4-[4-methyl-4-(5-methyl-1,3-benzoxazol-2-yl)piperidin-1-yl]-2-oxo-1,2-dihydroquinoline-3-carbonitrile]",108
8,"Cc1ccc2oc(C3CCN(c4c(C#N)c(=O)n(C)c5ccc(F)cc45)CC3)nc2c1 [Example 217, 6-fluoro-1-methyl-4-[4-(5-methyl-1,3-benzoxazol-2-yl)piperidin-1-yl]-2-oxo-1,2-dihydroquinoline-3-carbonitrile]",1
9,"COc1ccc(C2CCN(c3c(C#N)c(=O)n(C)c4cc(C)ccc34)CC2)cc1 [Example 91, 4-[4-(4-methoxyphenyl)piperidin-1-yl]-1,7-dimethyl-2-oxo-1,2-dihydroquinoline-3-carbonitrile]",3.1
10,"Cn1c(=O)c(C#N)c(N2CCC(c3nc4ccccc4o3)CC2)c2cccc(F)c21 [Example 155, 4-[4-(1,3-benzoxazol-2-yl)piperidin-1-yl]-8-fluoro-1-methyl-2-oxo-1,2-dihydroquinoline-3-carbonitrile]",60
11,"Cc1ccc2nc(C3(C)CCN(c4c(C(N)=O)c(=O)n(C)c5ccc(C)cc45)CC3)oc2c1 [Example 197, 1,6-dimethyl-4-[4-methyl-4-(6-methyl-1,3-benzoxazol-2-yl)piperidin-1-yl]-2-oxo-1,2-dihydroquinoline-3-carboxamide]",2.2
12,"COc1cccc2c(N3CCC(C)(c4nc5cc(C)ccc5o4)CC3)c(C#N)c(=O)n(C)c12 [Example 260, 8-methoxy-1-methyl-4-[4-methyl-4-(5-methyl-1,3-benzoxazol-2-yl)piperidin-1-yl]-2-oxo-1,2-dihydroquinoline-3-carbonitrile]",35
13,"Cn1c(=O)c(C(N)=O)c(N2CCC(c3ccn(-c4cccc(Cl)c4)n3)CC2)c2ccccc21 [Example 474, 4-{4-[1-(3-chlorophenyl)-1H-pyrazol-3-yl]piperidin-1-yl}-1-methyl-2-oxo-1,2-dihydroquinoline-3-carboxamide]",4.6
14,"Cn1c(=O)c(C#N)c(N2CCC(c3cccc4ncsc34)CC2)c2ccccc21 [Example 75, 4-[4-(1,3-benzothiazol-7-yl)piperidin-1-yl]-1-methyl-2-oxo-1,2-dihydroquinoline-3-carbonitrile]",49
15,"Cc1cc2c(N3CCC(c4ccn(-c5ccccc5C)n4)CC3)c(C#N)c(=O)n(C)c2cc1NCCO [Example 561, 7-[(2-hydroxyethyl)amino]-1,6-dimethyl-4-{4-[1-(2-methylphenyl)-1H-pyrazol-3-yl]piperidin-1-yl}-2-oxo-1,2-dihydroquinoline-3-carbonitrile]",1.4
16,"CCCOc1ccc2c(N3CCC(c4nc5ccccc5s4)CC3)c(C#N)c(=O)n(C)c2c1 [Example 270, 4-[4-(1,3-benzothiazol-2-yl)piperidin-1-yl]-1-methyl-2-oxo-7-propoxy-1,2-dihydroquinoline-3-carbonitrile]",72
17,"Cn1c(=O)c(C#N)c(N2CCC(c3ccc(Cl)cc3)CC2)c2ccccc21 [Example 54, 4-[4-(4-chlorophenyl)piperidin-1-yl]-1-methyl-2-oxo-1,2-dihydroquinoline-3-carbonitrile]",14

row,SMILES,IC50 [nM]
1,"Cn1ccc2c(F)cc(C3CCN(c4c(C(N)=O)c(=O)n(C)c5ccccc45)CC3)cc21 [Example 471, 4-[4-(4-fluoro-1-methyl-1H-indol-6-yl)piperidin-1-yl]-1-methyl-2-oxo-1,2-dihydroquinoline-3-carboxamide]",3.9
2,"COc1ccc2c(N3CCC(c4nc5ccc(Cl)cc5o4)CC3)c(C#N)c(=O)n(C)c2c1 [Example 258, 4-[4-(6-chloro-1,3-benzoxazol-2-yl)piperidin-1-yl]-7-methoxy-1-methyl-2-oxo-1,2-dihydroquinoline-3-carbonitrile]",29
3,"Cc1ccc2oc(C3(C)CCN(c4c(C#N)c(=O)n(C)c5ccc(OC6COC6)cc45)CC3)nc2c1 [Example 267, 1-methyl-4-[4-methyl-4-(5-methyl-1,3-benzoxazol-2-yl)piperidin-1-yl]-6-[(oxetan-3-yl)oxy]-2-oxo-1,2-dihydroquinoline-3-carbonitrile]",64
4,"Cc1ccc2oc(C3CCN(c4c(C#N)c(=O)n(C)c5cc(Cl)ccc45)CC3)nc2c1 [Example 229, 7-chloro-1-methyl-4-[4-(5-methyl-1,3-benzoxazol-2-yl)piperidin-1-yl]-2-oxo-1,2-dihydroquinoline-3-carbonitrile]",3
5,"Cn1c(=O)c(C(N)=O)c(N2CCC(c3ccccc3)CC2)c2ccccc21 [Example 114, 1-methyl-2-oxo-4-(4-phenylpiperidin-1-yl)-1,2-dihydroquinoline-3-carboxamide]",15
6,"Cc1cc(C2(C)CCN(c3c(C(N)=O)c(=O)n(C)c4ccccc34)CC2)nc2ccccc12 [Example 470, 1-methyl-4-[4-methyl-4-(4-methylquinolin-2-yl)piperidin-1-yl]-2-oxo-1,2-dihydroquinoline-3-carboxamide]",13
7,"Cc1ccc2c(c1)c(N1CCC(c3nc4ccc(Cl)cc4o3)CC1)c(C#N)c(=O)n2C [Example 183, 4-[4-(6-chloro-1,3-benzoxazol-2-yl)piperidin-1-yl]-1,6-dimethyl-2-oxo-1,2-dihydroquinoline-3-carbonitrile]",1.5
8,"Cc1ccc2oc(C3(C)CCN(c4c(C#N)c(=O)n(C)c5ccc(C6CC(F)(F)C6)cc45)CC3)nc2c1 [Example 209, 6-(3,3-difluorocyclobutyl)-1-methyl-4-[4-methyl-4-(5-methyl-1,3-benzoxazol-2-yl)piperidin-1-yl]-2-oxo-1,2-dihydroquinoline-3-carbonitrile]",26
9,"Cc1ccc2oc(C3(C)CCN(c4c(C#N)c(=O)n(C)c5c(C)cccc45)CC3)nc2c1 [Example 263, 1,8-dimethyl-4-[4-methyl-4-(5-methyl-1,3-benzoxazol-2-yl)piperidin-1-yl]-2-oxo-1,2-dihydroquinoline-3-carbonitrile]",42
10,"Cn1c(=O)c(C#N)c(N2CCC(c3cccc4nccnc34)CC2)c2ccccc21 [Example 79, 1-methyl-2-oxo-4-[4-(quinoxalin-5-yl)piperidin-1-yl]-1,2-dihydroquinoline-3-carbonitrile]",104
11,"Cn1c(=O)c(C#N)c(N2CCC(c3nc4ccccc4o3)CC2)c2ccc(Br)cc21 [Example 27, 4-[4-(1,3-benzoxazol-2-yl)piperidin-1-yl]-7-bromo-1-methyl-2-oxo-1,2-dihydroquinoline-3-carbonitrile]",2
12,"Cn1c(=O)c(C#N)c(N2CCC(c3ccc(OCc4ccccc4)cc3)CC2)c2ccccc21 [Example 48, 4-{4-[4-(benzyloxy)phenyl]piperidin-1-yl}-1-methyl-2-oxo-1,2-dihydroquinoline-3-carbonitrile]",3
13,"COc1ccc2c(c1)c(N1CCC(c3nnc(-c4ccccc4)o3)CC1)c(C#N)c(=O)n2C [Example 439, 6-methoxy-1-methyl-2-oxo-4-[4-(5-phenyl-1,3,4-oxadiazol-2-yl)piperidin-1-yl]-1,2-dihydroquinoline-3-carbonitrile]",492
14,"Cc1ccc2oc(C3CCN(c4c(C#N)c(=O)n(C)c5ccc(OCC6CC6)cc45)CC3)nc2c1 [Example 408, 6-(cyclopropylmethoxy)-1-methyl-4-[4-(5-methyl-1,3-benzoxazol-2-yl)piperidin-1-yl]-2-oxo-1,2-dihydroquinoline-3-carbonitrile]",15
15,CN1CCN(c2ccc(C3CCN(c4c(C#N)c(=O)n(C)c5ccccc45)CC3)cc2)C(=O)C1 [Example 66],78
16,"Cc1ccc2oc(C3CCN(c4c(C#N)c(=O)n(C)c5ccc(C)cc45)CC3)nc2c1 [Example 166, 1,6-dimethyl-4-[4-(5-methyl-1,3-benzoxazol-2-yl)piperidin-1-yl]-2-oxo-1,2-dihydroquinoline-3-carbonitrile]",2.2
17,"Cc1ccc2oc(C3CCN(c4c(C(N)=O)c(=O)n(C)c5ccc(C#N)cc45)CC3)nc2c1 [Example 498, 6-cyano-1-methyl-4-[4-(5-methyl-1,3-benzoxazol-2-yl)piperidin-1-yl]-2-oxo-1,2-dihydroquinoline-3-carboxamide]",3.1
